These results are taken from patent US20250296932A1, “PHARMACEUTICAL COMPOSITIONS COMPRISING HIV INTEGRASE INHIBITORS” (priority 2024, published 2025).

For data set [1], the system named is HIV-1 (HXB2) site directed mutant E138K/Q148K. In words: HIV-1 replication in MT-4 cells, INSTI resistant site-directed mutant E138K/Q148K. Format: cell-based. The conditions noted are these: 5 days, Cell Titer Glo, at least 3 independent experiments in quadruplicate. Here is the method: (§1) The compound of Formula I, along with control compounds bictegravir and raltegravir, were tested in a high-throughput 384-well assay format for ability to inhibit the replication of HIV-1 (HXB2) in MT-4 cells. Compounds were serially diluted (1:3) in 10 ul DMSO on 384-well plates and then diluted 187-fold into complete RPMI media using the uFLow and Biomek FX. 0.4 uL of compound was added in quadruplicate to 384-well assay plates. Each plate contained 8 test compounds, plus DMSO negative and 5 uM AZT positive controls. 1 mL aliquots of 2M MT-4 cells were pre-infected for 1 hr, @ 37° C. with 25 uL (MT-4) of either RPMI (mock-infected) or a fresh 1:250 dilution of an HIV-1 (HXB2 WT or site directed mutants containing either single INSTI Mutations E92Q, Y143R, Q148R, N155H, or R263K or double mutations E92Q/N155H, E138K/Q148K, or G140S/Q148R) concentrated ABI stock. Infected and uninfected cells were diluted in RPMI and 35 uL containing 2000 MT-4 cells was added to each well of assay plates, using the uFLow and subsequently incubated for 5 days at 37° C. in an incubator set at 5% CO2 and 90% humidity. After 5 days, 22 uL Cell Titer Glo (Promega, Madison, WI, Cat #G7573) was added to the assay plates with a Biotek uFlow Workstation. Plates were subsequently placed on a Perkin Elmer Envision Plate Reader for 5 minutes before the luminescence signal was read. EC50 values were defined as the compound concentration that causes a 50 decrease in luminescence signal, a measure of HIV-1 replication, and were calculated in Accord (online tool) using a one-site dose-response model to generate sigmoidal curve fits. Fold shifts for mutant viruses were obtained by calculating EC50 values relative to the HXB2 WT control.
(§2) The mean fold change values (relative to WT) are from at least 3 independent experiments assayed in quadruplicate.
On the technique in general: In ATP-based viability assays light output follows the ATP content of the culture.

In data set [2] the test system is HIV-1 (HXB2) site directed mutant E92Q/N155H. In words: HIV-1 replication in MT-4 cells, INSTI resistant site-directed mutant E92Q/N155H. In kind it is cell-based. The following applies: 5 days, Cell Titer Glo, at least 3 independent experiments in quadruplicate. Here is the method: as §1, §2
Data set [3] deals with HIV-1 (HXB2) site directed mutant R263K. As to the kind of experiment: HIV-1 replication in MT-4 cells, INSTI resistant site-directed mutant R263K. Format: cell-based. The following applies: 5 days, Cell Titer Glo, at least 3 independent experiments in quadruplicate. Here is the method: as §1, §2
Data set [4] deals with HIV-1 (HXB2) site directed mutant Y143R. As to the kind of experiment: HIV-1 replication in MT-4 cells, INSTI resistant site-directed mutant Y143R. The conditions noted are these: 5 days, Cell Titer Glo, at least 3 independent experiments in quadruplicate. Format: cell-based. Here is the method: as §1, §2
For data set [5], the system named is HIV-1 (HXB2) site directed mutant E92Q. In words: HIV-1 replication in MT-4 cells, INSTI resistant site-directed mutant E92Q. Format: cell-based. The conditions noted are these: 5 days, Cell Titer Glo, at least 3 independent experiments in quadruplicate. Here is the method:
as §1, §2

Data set [6] relates to HIV-1 (HXB2) site directed mutant G140S/Q148R. As to the kind of experiment: HIV-1 replication in MT-4 cells, INSTI resistant site-directed mutant G140S/Q148R. Format: cell-based. The following applies: 5 days, Cell Titer Glo, at least 3 independent experiments in quadruplicate. Here is the method: as §1, §2
Data set [7] has as its system HIV-1 (HXB2) site directed mutant N155H. In words: HIV-1 replication in MT-4 cells, INSTI resistant site-directed mutant N155H. Format: cell-based. The conditions noted are these: 5 days, Cell Titer Glo, at least 3 independent experiments in quadruplicate. Here is the method:
as §1, §2

Data set [8] relates to HIV-1 (HXB2) site directed mutant Q148R. As to the kind of experiment: HIV-1 replication in MT-4 cells, INSTI resistant site-directed mutant Q148R. Format: cell-based. The following applies: 5 days, Cell Titer Glo, at least 3 independent experiments in quadruplicate. Here is the method: as §1, §2
Data set [9] concerns NNRTI-resistant (NNRTI-r) HIV-1 mutants (HXB2-based viruses encoding RT mutations K103N, Y181C, Y188L, L100I+K103N, G190A). In words: Antiviral potency against panel of HIV-1 mutants: NNRTI-resistant. In kind it is cell-based. The following applies: relative to WT; at least three experiments run in triplicate; control: NNRTI (EFV). Here is the method: (§3) The human T-lymphoblastoid MT-2 and SupTI cell lines were obtained from the NIH AIDS Reagent Program (Germantown, MD) and maintained in RPMI-1640 medium supplemented with 10% heat-inactivated fetal bovine serum, 100 units/mL penicillin, and 10 μg/mL streptomycin (complete RPMI media). Cells were passaged twice per week and kept at densities less than 800,000 cells per mL. Adherent HEK293T cells were obtained from the Gladstone Institute for Virology and Immunology (San Francisco, CA) and maintained at densities below 80% confluency in Dulbecco's Modified Eagle Medium (DMEM) (Gibco) supplemented with 10% heat-inactivated FBS, 100 units/mL penicillin, and 10 μg/mL streptomycin (complete DMEM media). Unless otherwise noted, HIV-1 recombinant strains carrying mutations were prepared by transfecting infectious proviral pLAI-based or pHXB2-based cDNA clones into MT-2 cells and harvesting the cell supernatants. The NNRTI-resistant HXB2-based viruses encoding reverse transcriptase (RT) mutations (K103N, Y181C, Y188L, L100I+K103N, and G190A) were constructed by site-directed mutagenesis. The NRTI-resistant LAI-based viruses encoding RT mutations K65R, M184V, and M41L+T215Y were constructed by site-directed mutagenesis. […].
(§4) The EC50 fold change range is the mean±standard deviation from at least three experiments run in triplicate. […]

Data set [10] relates to PI-resistant (PI-r) HIV-1 mutants (HXB2-based viruses encoding protease mutations 150V, 184V+L90M, G48V+V82A+L90M, G48V+V82S). In words: Antiviral potency against panel of HIV-1 mutants: PI-resistant. Format: cell-based. The following applies: relative to WT; at least three experiments run in triplicate; controls: PIs (DRV, ATV). Here is the method:
as §3, §4

In data set [11] the test system is NRTI-resistant (NRTI-r) HIV-1 mutants (LAI-based viruses encoding RT mutations K65R, M184V, M41L+T215Y). As to the kind of experiment: Antiviral potency against panel of HIV-1 mutants: NRTI-resistant. Format: cell-based. The following applies: relative to WT; at least three experiments run in triplicate; controls: NRTIs (TAF, FTC). Here is the method:
as §3, §4

Data set [12] concerns CAI-resistant (CAI-r) HIV-1 reporter viruses encoding capsid mutations (L56I, N57H, M66I, K70N, Q67H+N74D, Q67H+T107N). As to the kind of experiment: Antiviral potency against panel of HIV-1 mutants: CAI-resistant single cycle reporter viruses. The conditions noted are these: relative to WT; at least three experiments run in triplicate; control: CAI (LEN). In kind it is cell-based. Here is the method: as §3, §4

Data set [13] in a line: Hygroscopicity by dynamic vapor sorption (DVS) of crystalline forms, salts and co-crystals. Format: physicochemical. Here is the method:
Hygroscopicity was studied using dynamic vapor sorption (DVS, TA Q5000 SA, TA Instruments, New Castle, DE or DVS, DVS Intrinsic, Surface Measurement Systems, London, UK). […] The water sorption and desorption were studied as a function of relative humidity (RH) at 25° C. […] Data analysis was performed using Universal Analysis 2000 Version 4.7A (TA Instruments, New Castle, DE) for TA DVS runs and Microsoft Excel for SMS DVS runs.

Consider `O=C(NCc1c(F)cc(F)cc1F)c1cn2c(c(O)c1=O)C(=O)N1[C@H]3CC[C@H](C3)O[C@@H]1C2` [Bictegravir], for which, in data set [1], the “Mean EC50 Fold Change (relative to WT), E138K/Q148K” value is 4.4 fold. Moreover, the “Mean EC50 Fold Change (relative to WT), E92Q/N155H” value in data set [2] came out at 1.2 fold. Further, in [3], the “Mean EC50 Fold Change (relative to WT), R263K” value is listed as 1.9 fold. Moreover, the “Mean EC50 Fold Change (relative to WT), Y143R” value in data set [4] was found to be 1.8 fold. Also, the “Mean EC50 Fold Change (relative to WT), E92Q” value in [5] is 1.6 fold. Moreover, the “Mean EC50 Fold Change (relative to WT), G140S/Q148R” value in data set [6] is on record as 2.1 fold. In [7], the “Mean EC50 Fold Change (relative to WT), N155H” value is 1.3 fold. For the same compound, the “Mean EC50 Fold Change (relative to WT), Q148R” value in data set [8] is 0.7 fold.
As for `C[C@@H]1C=C[C@H](C)N2CN1n1cc(C(=O)NCc3c(F)cc(F)cc3F)c(=O)c(O)c1C2=O` [Compound of Formula I, (1S,2R,5S)-8-hydroxy-2,5-dimethyl-7,9-dioxo-N-(2,4,6-trifluorobenzyl)-2,5,7,9-tetrahydro-1,6-methanopyrido[1,2-b][1,2,5]triazonine-10-carboxamide], in data set [1], the “Mean EC50 Fold Change (relative to WT), E138K/Q148K” value is 9.5 fold. In [2], the “Mean EC50 Fold Change (relative to WT), E92Q/N155H” value is reported as 1.8 fold. In addition, in data set [3], the “Mean EC50 Fold Change (relative to WT), R263K” value is reported as 2.0 fold. In data set [4], the “Mean EC50 Fold Change (relative to WT), Y143R” value amounted to 2.5 fold. In data set [9], the “EC50 Fold Change, Range, NNRTI-r” value was 0.7-2.4 fold. Also, the “EC50 Fold Change, Range, PI-r” value in [10] was 0.4-1.3 fold. Further, the “Mean EC50 Fold Change (relative to WT), E92Q” value in [5] is reported as 2.7 fold. Moreover, in data set [6], the “Mean EC50 Fold Change (relative to WT), G140S/Q148R” value is given as 5.5 fold. For the same compound, in data set [7], the “Mean EC50 Fold Change (relative to WT), N155H” value was found to be 1.9 fold. In data set [8], the “Mean EC50 Fold Change (relative to WT), Q148R” value was determined as 1.0 fold. Also, in [11], the “EC50 Fold Change, Range, NRTI-r” value is listed as 0.4-0.8 fold. For the same compound, the “EC50 Fold Change, Range, CAI-r” value in data set [12] is 0.8-1.2 fold.
As for `C[C@@H]1C=C[C@H](C)N2CN1n1cc(C(=O)NCc3c(F)cc(F)cc3F)c(=O)c(O)c1C2=O` [Compound of Formula I, Form I, (1S,2R,5S)-8-hydroxy-2,5-dimethyl-7,9-dioxo-N-(2,4,6-trifluorobenzyl)-2,5,7,9-tetrahydro-1,6-methanopyrido[1,2-b][1,2,5]triazonine-10-carboxamide], the “form of the material post DVS experiment” value in data set [13] (after DVS sorption/desorption at 25° C.) is reported as “not have changed form”. Also, the “water absorbed (DVS)” value in data set [13] (up to 95% RH at 25° C.) was “about 0.15%”.
With `Cc1nnc(C(=O)NC(C)(C)c2nc(C(=O)NCc3ccc(F)cc3)c(O)c(=O)n2C)o1` [Raltegravir], the “Mean EC50 Fold Change (relative to WT), E138K/Q148K” value in data set [1] was found to be 6.5 fold. Moreover, the “Mean EC50 Fold Change (relative to WT), E92Q/N155H” value in [2] is recorded as 58 fold. Also, in [3], the “Mean EC50 Fold Change (relative to WT), R263K” value was 1.1 fold. Also, in data set [4], the “Mean EC50 Fold Change (relative to WT), Y143R” value is 18 fold. Further, in data set [5], the “Mean EC50 Fold Change (relative to WT), E92Q” value is on record as 4.8 fold. Also, the “Mean EC50 Fold Change (relative to WT), G140S/Q148R” value in data set [6] came to 108 fold. Also, the “Mean EC50 Fold Change (relative to WT), N155H” value in [7] was determined as 6.1 fold. In addition, in data set [8], the “Mean EC50 Fold Change (relative to WT), Q148R” value is reported as 16 fold.
